Source: patent US20240382483A1, “HETEROCYCLIC EGFR INHIBITORS FOR USE IN THE TREATMENT OF CANCER” (Blueprint Medicines Corporation, priority 2021, published 2024)

Key:
EGFR (L858R T790M C797S) = target: T1, EGFR (L858R T790M C797S) (Homo sapiens, UniProt P00533, C797S/L858R/T790M); assay: Biochemical EGFR inhibition assay (Caliper mobility shift), EGFR LRTMCS; conditions: LRTMCS (PH) IC50 (nM) @ 1 mM ATP (Num), EGFR LRTMCS mutant
T1 construct: purchased SignalChem E10-122VG
Method: Reactions proceeded until between 10% to 20% total peptides were phosphorylated at room temperature (25° C.) and were terminated with 35 mM 2,2′,2″,2′″-(ethane-1,2-diyldinitrilo)tetraacetic acid (EDTA). Product was detected using the Caliper mobility shift detection method where the phosphorylated peptide (product) and substrate were electrophoretically separated and measured. Percent activity was plotted against log concentration of compound and points to generate an apparent IC50.

[1] = target: T2, intracellular phosphorylation of EGFR in NCI-H1975 cell line that harbors the EGFR L858R T790M mutations (Homo sapiens, UniProt P00533, L858R/T790M); assay: NCI-H1975 pEGFR AlphaLISA assay; type: cell-based; conditions: NCI-H1975 cells (EGFR L858R T790M), p-EGFR (Tyr1068), 4-5 hours incubation; read-out: Ext pEGFR H1975 GMean IC50 (nM) Protocol: @Pharmaron AlphaLISA (Num)
T2 construct: NCI-H1975 cell line that harbors the EGFR L858R T790M mutations (ATCC, CRL-5908); host or cells: NCI-H1975
Method: On the next day, the test compounds and DMSO control were added into H1975 cell plate followed by incubation at 37C/5% CO2 for 4-5 hours. […] Then 5 μL of a donor bead mix was added to each well followed by overnight incubation at room temperature in dark. On the next day, the plate was read at a compatible plate reader to obtain pEGFR signal. Percent of pEGFR inhibition was plotted against log concentration of compounds to generate IC50 values.

T2 sequence (P00533 25-1210 T790M/L858R): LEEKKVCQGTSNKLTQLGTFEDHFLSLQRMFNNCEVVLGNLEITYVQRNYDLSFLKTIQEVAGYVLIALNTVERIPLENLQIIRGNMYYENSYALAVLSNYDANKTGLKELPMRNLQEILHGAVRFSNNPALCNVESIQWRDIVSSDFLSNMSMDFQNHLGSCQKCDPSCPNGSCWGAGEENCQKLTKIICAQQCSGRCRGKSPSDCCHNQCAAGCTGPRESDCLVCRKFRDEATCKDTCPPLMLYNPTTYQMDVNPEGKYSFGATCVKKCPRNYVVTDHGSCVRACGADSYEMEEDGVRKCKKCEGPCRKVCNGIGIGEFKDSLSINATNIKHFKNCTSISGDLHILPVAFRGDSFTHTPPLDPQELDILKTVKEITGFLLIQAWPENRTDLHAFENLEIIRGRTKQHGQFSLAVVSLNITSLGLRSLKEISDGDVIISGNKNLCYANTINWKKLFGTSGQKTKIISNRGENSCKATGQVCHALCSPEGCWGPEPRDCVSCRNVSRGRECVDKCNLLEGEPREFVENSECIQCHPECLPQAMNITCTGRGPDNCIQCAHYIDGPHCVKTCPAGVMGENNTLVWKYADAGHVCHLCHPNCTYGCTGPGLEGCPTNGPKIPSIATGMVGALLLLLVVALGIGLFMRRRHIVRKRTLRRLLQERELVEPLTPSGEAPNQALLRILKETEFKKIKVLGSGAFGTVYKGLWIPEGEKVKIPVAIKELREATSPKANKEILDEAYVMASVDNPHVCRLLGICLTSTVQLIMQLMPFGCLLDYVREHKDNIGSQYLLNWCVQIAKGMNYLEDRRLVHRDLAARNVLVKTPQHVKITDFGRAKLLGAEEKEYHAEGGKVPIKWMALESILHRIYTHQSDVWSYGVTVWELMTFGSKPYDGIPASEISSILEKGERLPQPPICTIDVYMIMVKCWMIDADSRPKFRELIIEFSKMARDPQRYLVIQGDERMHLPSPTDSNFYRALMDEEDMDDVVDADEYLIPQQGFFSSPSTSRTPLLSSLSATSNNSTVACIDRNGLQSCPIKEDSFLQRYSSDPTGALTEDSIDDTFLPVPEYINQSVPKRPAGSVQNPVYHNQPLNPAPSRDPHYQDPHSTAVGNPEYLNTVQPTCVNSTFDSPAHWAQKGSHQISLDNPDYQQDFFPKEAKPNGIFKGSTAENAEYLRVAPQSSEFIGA
T1 sequence (P00533 25-1210 T790M/C797S/L858R): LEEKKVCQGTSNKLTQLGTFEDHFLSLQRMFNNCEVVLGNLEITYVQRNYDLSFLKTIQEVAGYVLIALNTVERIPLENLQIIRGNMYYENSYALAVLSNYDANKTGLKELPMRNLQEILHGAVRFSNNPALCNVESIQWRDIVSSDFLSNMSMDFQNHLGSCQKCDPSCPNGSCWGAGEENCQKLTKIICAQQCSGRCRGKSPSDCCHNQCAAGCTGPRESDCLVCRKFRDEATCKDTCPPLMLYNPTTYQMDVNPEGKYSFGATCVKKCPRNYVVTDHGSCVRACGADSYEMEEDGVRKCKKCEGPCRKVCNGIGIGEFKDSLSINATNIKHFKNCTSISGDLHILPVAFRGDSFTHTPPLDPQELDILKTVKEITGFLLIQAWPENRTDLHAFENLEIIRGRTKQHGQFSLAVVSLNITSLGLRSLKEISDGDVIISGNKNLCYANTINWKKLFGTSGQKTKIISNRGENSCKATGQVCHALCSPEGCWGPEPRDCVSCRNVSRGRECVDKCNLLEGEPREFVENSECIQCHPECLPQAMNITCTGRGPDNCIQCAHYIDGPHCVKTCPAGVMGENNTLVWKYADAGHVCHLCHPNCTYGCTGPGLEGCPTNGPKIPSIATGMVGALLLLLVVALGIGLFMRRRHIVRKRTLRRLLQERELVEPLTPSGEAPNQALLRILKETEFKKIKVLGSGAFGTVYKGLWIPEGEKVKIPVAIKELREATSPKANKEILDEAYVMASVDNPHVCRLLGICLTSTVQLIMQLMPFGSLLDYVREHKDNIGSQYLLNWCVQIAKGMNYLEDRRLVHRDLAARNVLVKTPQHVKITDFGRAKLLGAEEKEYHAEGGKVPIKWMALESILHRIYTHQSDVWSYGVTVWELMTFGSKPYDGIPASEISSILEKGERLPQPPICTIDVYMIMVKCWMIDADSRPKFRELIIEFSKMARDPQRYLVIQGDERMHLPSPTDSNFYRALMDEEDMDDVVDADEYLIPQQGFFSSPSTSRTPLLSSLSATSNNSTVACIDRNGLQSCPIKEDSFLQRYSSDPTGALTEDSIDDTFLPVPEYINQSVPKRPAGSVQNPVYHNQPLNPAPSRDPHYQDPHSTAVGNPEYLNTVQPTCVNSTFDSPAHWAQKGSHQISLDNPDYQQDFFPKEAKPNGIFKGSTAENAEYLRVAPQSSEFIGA

SMILES	IC50 (EGFR (L858R T790M C797S)) [nM]	IC50 [1] [nM]
CC(C)c1cnc(N2CC[C@H]2C)c2cnc(Nc3ccnc(N4CC[C@H](OCCN(C)C)[C@H](F)C4)n3)cc12 [Example 202, N-(2-((3R,4S)-4-(2-(dimethylamino)ethoxy)-3-fluoropiperidin-1-yl)pyrimidin-4-yl)-5-isopropyl-8-((R)-2-methylazetidin-1-yl)-2,7-naphthyridin-3-amine]	30 to 100	30 to 50
CC(C)c1cnc(N2CC3(CCN(C)C3=O)C2)c2cnc(Nc3ccnc(N4CC[C@@H](O)[C@@](C)(F)C4)n3)cc12 [Example 99, 2-(6-((2-((3S,4R)-3-fluoro-4-hydroxy-3-methylpiperidin-1-yl)pyrimidin-4-yl)amino)-4-isopropyl-2,7-naphthyridin-1-yl)-6-methyl-2,6-diazaspiro[3.4]octan-5-one]	30 to 100	30 to 50
CC(C)c1cnc(N2CC(CC(=O)N(C)C)C2)c2cnc(Nc3ccnc(N4CC[C@@H](O)[C@@](C)(F)C4)n3)cc12 [Example 86, 2-(1-(6-((2-((3S,4R)-3-fluoro-4-hydroxy-3-methylpiperidin-1-yl)pyrimidin-4-yl)amino)-4-isopropyl-2,7-naphthyridin-1-yl)azetidin-3-yl)-N,N-dimethylacetamide]	20 to 30	30 to 50
CC(C)c1ncc(N2CCC23CN(C)C3)c2cnc(Nc3ccnc(N4CC[C@@H](O)[C@@](C)(F)C4)n3)cc12 [Example 195, (3S,4R)-3-fluoro-1-(4-((5-isopropyl-8-(6-methyl-1,6-diazaspiro[3.3]heptan-1-yl)-2,6-naphthyridin-3-yl)amino)pyrimidin-2-yl)-3-methylpiperidin-4-ol]	20 to 30	30 to 50
CC(C)c1cnc(N2CC3(CCS3(=O)=O)C2)c2cnc(Nc3ccnc(N4CC[C@@H](O)[C@@](C)(F)C4)n3)cc12 [Example 98, 6-(6-((2-((3S,4R)-3-fluoro-4-hydroxy-3-methylpiperidin-1-yl)pyrimidin-4-yl)amino)-4-isopropyl-2,7-naphthyridin-1-yl)-1-thia-6-azaspiro[3.3]heptane 1,1-dioxide]	< 15	10 to 20
[2H]C([2H])([2H])O[C@H]1CCN(c2nccc(Nc3cc4c(C(C)C)cnc(N5C[C@H](O)[C@H]5C)c4cn3)n2)C[C@H]1F [Example 138, (2R,3S)-1-(6-((2-((3R,4S)-3-fluoro-4-(methoxy-d3)piperidin-1-yl)pyrimidin-4-yl)amino)-4-isopropyl-2,7-naphthyridin-1-yl)-2-methylazetidin-3-ol]	< 15	10 to 20
CC(C)c1cnc(N2CC[C@H](S(C)(=O)=O)C2)c2cnc(Nc3ccnc(N4CC[C@@H](O)[C@@](C)(F)C4)n3)cc12 [Example 75, (3S,4R)-3-fluoro-1-(4-((5-isopropyl-8-((S)-3-(methylsulfonyl)pyrrolidin-1-yl)-2,7-naphthyridin-3-yl)amino)pyrimidin-2-yl)-3-methylpiperidin-4-ol]	15 to 20	10 to 20
CO[C@@H]1CCN(c2nccc(Nc3cc4c(C(C)C)ncc(N5CC(C(=O)N(C)C)C5)c4cn3)n2)C[C@@H]1O (single isomer, unassigned) [Example 121, 1-(7-((2-((3S,4R)-3-hydroxy-4-methoxypiperidin-1-yl)pyrimidin-4-yl)amino)-1-isopropyl-2,6-naphthyridin-4-yl)-N,N-dimethylazetidine-3-carboxamide or 1-(7-((2-((3R,4S)-3-hydroxy-4-methoxypiperidin-1-yl)pyrimidin-4-yl)amino)-1-isopropyl-2,6-naphthyridin-4-yl)-N,N-dimethylazetidine-3-carboxamide]	30 to 100	> 50
CC(C)c1cnc(N2CC[C@@H]2C)c2cnc(Nc3ccnc(N4CC[C@H](O)[C@H](F)C4)n3)cc12 (single isomer, unassigned) [Example 160, (3R,4S)-3-fluoro-1-(4-((5-isopropyl-8-((S)-2-methylazetidin-1-yl)-2,7-naphthyridin-3-yl)amino)pyrimidin-2-yl)piperidin-4-ol or (3R,4S)-3-fluoro-1-(4-((5-isopropyl-8-((R)-2-methylazetidin-1-yl)-2,7-naphthyridin-3-yl)amino)pyrimidin-2-yl)piperidin-4-ol]	< 15	10 to 20
[2H]C([2H])([2H])O[C@@H]1CCN(c2nccc(Nc3cc4c(C(C)C)cnc(N5C[C@H](OCCO)[C@H]5C)c4cn3)n2)C[C@@H]1F [Example 140, 2-(((2R,3S)-1-(6-((2-((3S,4R)-3-fluoro-4-(methoxy-d3)piperidin-1-yl)pyrimidin-4-yl)amino)-4-isopropyl-2,7-naphthyridin-1-yl)-2-methylazetidin-3-yl)oxy)ethan-1-ol]	< 15	< 10
CO[C@H]1CCN(c2nccc(Nc3cc4c(C(C)C)ccc(N5CC[C@H]5CN)c4cn3)n2)C[C@H]1F [Example 39, 8-((S)-2-(aminomethyl)azetidin-1-yl)-N-(2-((3R,4S)-3-fluoro-4-methoxypiperidin-1-yl)pyrimidin-4-yl)-5-isopropylisoquinolin-3-amine]	< 15	> 50
C[C@@H](CO)c1cnc(N2CC[C@@H]2C)c2cnc(Nc3ccnc(N4CC[C@@H](O)[C@@](C)(F)C4)n3)cc12 (single isomer, unassigned) [Example 189]	< 15	10 to 20
CC(C)c1cnc(N2CC(C)(C(=O)N(C)C)C2)c2cnc(Nc3ccnc(N4CC[C@@H](O)[C@@](C)(F)C4)n3)cc12 [Example 93, 1-(6-((2-((3S,4R)-3-fluoro-4-hydroxy-3-methylpiperidin-1-yl)pyrimidin-4-yl)amino)-4-isopropyl-2,7-naphthyridin-1-yl)-N,N,3-trimethylazetidine-3-carboxamide]	< 15	10 to 20
CC(C)c1ccc(N2CC(Cn3ccnn3)C2)c2cnc(Nc3ccnc(N4CC[C@](C)(O)[C@H](F)C4)n3)cc12 [Example 40, (3R,4S)-1-(4-((8-(3-((1H-1,2,3-triazol-1-yl)methyl)azetidin-1-yl)-5-isopropylisoquinolin-3-yl)amino)pyrimidin-2-yl)-3-fluoro-4-methylpiperidin-4-ol]	< 15	20 to 30
CC(C)c1cnc(N2C[C@@H](C(=O)N(C)C)[C@@H]2C)c2cnc(Nc3ccnc(N4CC[C@@H](O)[C@@](C)(F)C4)n3)cc12 (single isomer, unassigned) [Example 155, (2S,3R)-1-(6-((2-((3S,4R)-3-fluoro-4-hydroxy-3-methylpiperidin-1-yl)pyrimidin-4-yl)amino)-4-isopropyl-2,7-naphthyridin-1-yl)-N,N,2-trimethylazetidine-3-carboxamide or (2R,3S)-1-(6-((2-((3S,4R)-3-fluoro-4-hydroxy-3-methylpiperidin-1-yl)pyrimidin-4-yl)amino)-4-isopropyl-2,7-naphthyridin-1-yl)-N,N,2-trimethylazetidine-3-carboxamide]	< 15	< 10
CC(C)c1cnc(N2CC[C@H]2C)c2cnc(Nc3ccnc(N4CC[C@H](OCCO)[C@H](F)C4)n3)cc12 [Example 141, 2-(((3R,4S)-3-fluoro-1-(4-((5-isopropyl-8-((R)-2-methylazetidin-1-yl)-2,7-naphthyridin-3-yl)amino)pyrimidin-2-yl)piperidin-4-yl)oxy)ethan-1-ol]	< 15	< 10
CO[C@@H]1CCN(c2nccc(Nc3cc4c(C(C)C)cnc(N5C[C@H](OCCN)[C@H]5C)c4cn3)n2)C[C@@H]1F [Example 163, 8-((2R,3S)-3-(2-aminoethoxy)-2-methylazetidin-1-yl)-N-(2-((3S,4R)-3-fluoro-4-methoxypiperidin-1-yl)pyrimidin-4-yl)-5-isopropyl-2,7-naphthyridin-3-amine]	< 15	20 to 30
CC(C)c1cnc(N2CC[C@@]23CCN(C)C3)c2cnc(Nc3ccnc(N4CC[C@@H](O)[C@@](C)(F)C4)n3)cc12 (single isomer, unassigned) [Example 199, (3S,4R)-3-fluoro-1-(4-((5-isopropyl-8-((R)-6-methyl-1,6-diazaspiro[3.4]octan-1-yl)-2,7-naphthyridin-3-yl)amino)pyrimidin-2-yl)-3-methylpiperidin-4-ol or (3S,4R)-3-fluoro-1-(4-((5-isopropyl-8-((S)-6-methyl-1,6-diazaspiro[3.4]octan-1-yl)-2,7-naphthyridin-3-yl)amino)pyrimidin-2-yl)-3-methylpiperidin-4-ol]	< 15	20 to 30
C[C@H](CO)c1ccc(N2CC[C@H]2C)c2cnc(Nc3ccnc(N4CC[C@@H](O)[C@@](C)(F)C4)n3)cc12 (single isomer, unassigned) [Example 158, (3S,4R)-3-fluoro-1-(4-((5-((S)-1-hydroxypropan-2-yl)-8-((R)-2-methylazetidin-1-yl)isoquinolin-3-yl)amino)pyrimidin-2-yl)-3-methylpiperidin-4-ol or (3S,4R)-3-fluoro-1-(4-((5-((R)-1-hydroxypropan-2-yl)-8-((R)-2-methylazetidin-1-yl)isoquinolin-3-yl)amino)pyrimidin-2-yl)-3-methylpiperidin-4-ol]	15 to 20	30 to 50
